This note sets out measurements from US20010041724A1, “METHOD FOR THE CONTROL OF FLEA BEETLES IN CANOLA” (priority 1998, published 2001).

Test [1] has as its system canola. As to the kind of experiment: Canola seed treatment, yield at end of growing season. The format is in vivo. The settings on record: canola seed treated with acetamiprid; end of the growing season.
The test system of test [2] is Phyllotreta spp. (flea beetles). As to the kind of experiment: Canola seed treatment, shot-hole damage assessment post-emergence. It is filed as in vivo. The note with it: 4, 7, 10 and 14 days post-emergence. The procedure: Acetamiprid is applied to canola seed at rates of 7.5, 10, and 12.5 grams of active ingredient per kg of seed. Imidacloprid is applied to canola seed at rate of 15 g/kg of seed. The seed is planted and allowed to grow. At 4, 7, 10 and 14 days post-emergence of the plant, damage is assessed for the plants by looking for shot-hole damage.

Consider `C/C(=N\C#N)N(C)Cc1ccc(Cl)nc1` [acetamiprid, (E)-N^1-[(6-chloro-3-pyridyl)methyl]-N^2-cyano-N^1-methylacetamidine], for which the “yield of plants grown from treated seed” value in test [1] is “general yield increase”. In test [2] (acetamiprid 7.5, 10 and 12.5 g a.i./kg canola seed vs imidacloprid 15 g/kg seed), the “control of shot-hole damage relative to imidacloprid” value is “substantially more control than imidacloprid”. In test [2] (acetamiprid 7.5, 10 and 12.5 g a.i./kg canola seed), the “control of shot-hole damage relative to two stage lindane+terbufos treatment” value was “generally equivalent to the two stage lindane+terbufos treatment”.
